Reference: PubChem BioAssay (NCI)
Where “and” joins values, the source holds several entries; their conditions need not be identical. Equal values may be shown once.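 Dose response: 5 concentrations. Exposure: 48 h. Format: 96-well plates. Endpoint: linear interpolation; highest concentration if not reached. At the GI50, growth is halved. TGI: total growth inhibition.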

How the values were obtained:
Experiment in all cases: NCI-60 cell line screen, 48 h
CAKI-1 renal = test system: CAKI-1 renal
COLO 205 colon = test system: COLO 205 colon
M14 melanoma = test system: M14 melanoma
OVCAR-4 ovarian = test system: OVCAR-4 ovarian
HOP-92 NSCLC = test system: HOP-92 NSCLC
ACHN renal = test system: ACHN renal
A549 NSCLC = test system: A549 NSCLC
NCI-H522 lung = test system: NCI-H522 lung
HCC-2998 colon = test system: HCC-2998 colon
SK-MEL-5 melanoma = test system: SK-MEL-5 melanoma
UO-31 renal = test system: UO-31 renal
EKVX NSCLC = test system: EKVX NSCLC
MOLT-4 leukemia = test system: MOLT-4 leukemia
SK-MEL-28 melanoma = test system: SK-MEL-28 melanoma

SMILES | TGI (CAKI-1 renal) [µM] | TGI (COLO 205 colon) | TGI (M14 melanoma) [µM] | TGI (OVCAR-4 ovarian) [µM] | TGI (HOP-92 NSCLC) [µM] | TGI (ACHN renal) [µM] | TGI (A549 NSCLC) [µM] | TGI (NCI-H522 lung) [µM] | TGI (HCC-2998 colon) [µM] | TGI (SK-MEL-5 melanoma) | TGI (UO-31 renal) [µM] | TGI (EKVX NSCLC) | TGI (MOLT-4 leukemia) | TGI (SK-MEL-28 melanoma) | GI50 (OVCAR-4 ovarian) | GI50 (NCI-H522 lung) | GI50 (HCC-2998 colon) [µM] | GI50 (EKVX NSCLC) | GI50 (MOLT-4 leukemia) | GI50 (SK-MEL-28 melanoma) [µM]
N#Cc1c(-c2cccc(Br)c2)cc(-c2ccc(Cl)cc2)nc1N | 79.1 | 27.2 µM | 41.1 | 13.5 | 32.4 | 51.8 | 57 | 30.4 | 34 | 30.7 µM | 48.7 | 56.7 µM | 50.1 µM |  |  |  |  |  |  | 
COc1cccc(N2C(=O)CSC2c2c[nH]c3ccccc23)c1 (stereo not drawn) |  | > 100 µM | > 100 | > 100 | > 100 |  |  | > 100 | > 100 | > 100 µM | > 100 | > 100 µM | > 100 µM | > 100 µM |  |  |  |  |  | 
COC(=O)C1C(O)C(C)C(O)C(C)/C=C\C=C(C)C(=O)Nc2c(C)c(OC(C)=O)c3c(c2O)C(=O)C(C)=C2OCOC(=C23)C(C)=CC(C)(O)C(O)C(C)C1O (stereo not drawn) | > 62.2 | 36.3 µM and 58.6 µM | > 100 | > 100 | > 100 | > 100 | > 100 | > 100 | > 100 | 74.5 µM and > 100 µM | > 100 | 73.7 µM and > 100 µM | 45.4 µM and > 100 µM | 44.7 µM and > 100 µM | > 66.3 µM and 14.6 µM | 23.4 µM and 74.2 µM | > 100 | 48 µM and > 100 µM | 18.1 µM and 51.1 µM | 21.7
O=S(=O)(O)c1ccc(N=Nc2c(O)ccc3ccccc23)cc1 | > 100 | > 100 µM | > 100 | > 100 | > 100 | > 100 | > 100 | > 100 | > 100 | > 100 µM | > 100 | > 100 µM | > 100 µM | > 100 µM |  |  |  |  |  | 
O=c1cnn(C/C=C/CP(=O)(O)O)c(=O)[nH]1 | > 100 | > 100 µM | > 100 |  | > 100 | > 100 | > 100 | > 100 | > 100 | > 100 µM | > 100 | > 100 µM |  | > 100 µM |  |  |  |  |  | 
CC[N+](C)(C)c1ccc(C(=C2C=CC(=[N+](C)C)C=C2)c2ccc(N(C)C)cc2)cc1 | > 100 | > 100 µM | 31.4 | 38.3 | 54.8 | 62.1 | > 100 | 9.37 | 32.3 | 26.9 µM | 70.1 | > 100 µM | 46.1 µM | 52.4 µM |  |  |  |  |  | 
COc1cc2c(cc1C)NC(=O)/C2=C\c1cccnc1 | 36.2 | 39.8 µM | 77 | 40.4 | 59.5 | > 100 | 71.7 | 70.2 | 21.6 | 33.5 µM | 39.5 | 52.9 µM | 60.1 µM | > 100 µM |  |  |  |  |  | 
O=S(=O)(O)c1cc(S(=O)(=O)O)c2c(N=Nc3ccccc3)c(O)ccc2c1 | > 100 | > 100 µM | > 100 | > 100 | > 100 |  | > 100 |  |  | > 100 µM | > 100 |  | > 100 µM | > 100 µM |  |  |  |  |  | 
CC(C)OP(=O)(OC(C)C)c1nn(-c2ccc([N+](=O)[O-])cc2)c(=N)s1 | > 100 | > 100 µM | > 100 | > 100 | > 100 | > 100 | > 100 | > 100 | > 100 | > 100 µM | > 100 | > 100 µM | > 100 µM | > 100 µM |  |  |  |  |  | 
COc1cccc2c1C(=O)c1c(O)c3c(c(O)c1C2=O)CC(O)(C(C)=O)CC3OC1CC([N+](C)(C)C)C(O)C(C)O1 (stereo not drawn) | > 100 | > 100 µM | > 100 | > 100 | > 100 | > 100 | > 100 | > 100 | > 100 | > 100 µM | > 100 | > 100 µM | 56.1 µM | > 100 µM |  |  |  |  |  | 
CC1=CC(=C(c2ccc(N)c(C)c2)c2ccc(N)c(C)c2)C=CC1=N | 62.4 | 5.87 µM | 18.3 | 52.8 | 14.2 | 69.2 | 28.6 | 13.6 | 14.4 | 5.75 µM | 84.9 | 45.8 µM | 30.9 µM | 19.2 µM |  |  |  |  |  | 
OC12c3ccccc3C1CCCCCCCCCC21OCCCO1 (stereo not drawn) |  | > 100 µM | > 100 | > 100 |  |  | > 100 | > 100 | > 100 | > 100 µM | > 100 | > 100 µM |  | > 100 µM |  |  |  |  |  | 
O=S(=O)(O)c1cccc2ccc(O)c(N=Nc3ccc(S(=O)(=O)c4ccc(N=Nc5c(O)ccc6cccc(S(=O)(=O)O)c56)cc4)cc3)c12 | > 100 | > 100 µM | > 100 | > 100 | > 100 | > 100 | > 100 | > 100 |  | > 100 µM | > 100 | > 100 µM | > 100 µM | > 100 µM |  |  |  |  |  | 
COC1C(=[N+]=[N-])C(=O)NC(=O)N1C1OC(COC(c2ccccc2)(c2ccccc2)c2ccccc2)C(O)C1O (stereo not drawn) | 56.1 | 38 µM | 34.6 | 27.8 |  | 38.3 | 31.9 | 31 | 32.8 | 30 µM | 32.2 | 35.9 µM | 49.7 µM | 31.2 µM |  |  |  |  |  | 
CCC(C)C1=C(O)[N+]2([O-])Oc3ccc(-c4c(O)c(O)c(-c5ccc(O)cc5)c(OC(C)=O)c4OC(C)=O)cc3OC2(C(C)CC)C(=O)N1O (stereo not drawn) | > 50 | > 50 µM | > 50 | > 50 |  | > 50 | > 50 | > 50 |  | > 50 µM | > 50 | > 50 µM | > 50 µM | > 50 µM |  |  |  |  |  | 
